Test results taken from PubChem BioAssay AID330 (DTP/NCI, 2004).
Values joined by “and” are separate entries in the source; they are usually repeats but may differ in a detail not shown here. Identical values can stand only once. Toxic doses and inconclusive results are not listed. The calls were made as follows: active = survival T/C of 150% or more; inactive = T/C below 125% in these data.

System: P388 leukemia ip, CD2F1 mice, survival T/C
Test: NCI In Vivo Anticancer Drug Screen. Data for tumor model P388 Leukemia (intraperitoneal) in CD2F1 (CDF1) mice
Conditions: endpoint: median survival time, higher = longer survival
How it was run: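 Mice carrying the transplanted tumor received test compound or vehicle. Survival was recorded in each group, and the value is the treated-group measurement divided by that of the vehicle-treated control group.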

[1] = dose: 60.0 mg/kg/injection, schedule: Q01DX005 (ip), vehicle: saline with Tween-80
[2] = dose: 120.0 mg/kg/injection, schedule: Q01DX005 (ip), vehicle: saline with Tween-80
[3] = dose: 240.0 mg/kg/injection, schedule: Q01DX005 (ip), vehicle: saline with Tween-80
[4] = dose: 100.0 mg/kg/injection, schedule: Q04DX003 (ip), vehicle: saline with Tween-80
[5] = dose: 50.0 mg/kg/injection, schedule: Q01DX009 (ip), vehicle: saline with Tween-80
[6] = dose: 100.0 mg/kg/injection, schedule: Q01DX009 (ip), vehicle: saline with Tween-80
[7] = dose: 200.0 mg/kg/injection, schedule: Q01DX009 (ip), vehicle: saline with Tween-80
[8] = dose: 50.0 mg/kg/injection, schedule: Q01DX005 (ip), vehicle: saline with Tween-80
[9] = dose: 100.0 mg/kg/injection, schedule: Q01DX005 (ip), vehicle: saline with Tween-80
[10] = dose: 200.0 mg/kg/injection, schedule: Q01DX005 (ip), vehicle: saline with Tween-80
[11] = dose: 100.0 mg/kg/injection, schedule: Q01DX009 (ip), vehicle: saline
[12] = dose: 50.0 mg/kg/injection, schedule: Q01DX009 (ip), vehicle: saline
[13] = dose: 400.0 mg/kg/injection, schedule: Q04DX003 (ip), vehicle: saline
[14] = dose: 200.0 mg/kg/injection, schedule: Q01DX009 (ip), vehicle: saline

Measured: T/C

COCOc1cc(OCc2ccccc2)ccc1C(=O)/C=C/c1cc2c(cc1OCc1ccccc1)OCO2
inactive: dose: 100.0 mg/kg/injection, schedule: Q01DX001 (ip), vehicle: Klucel (hydroxypropylcellulose) (HPC) 105 % of control | dose: 200.0 mg/kg/injection, schedule: Q01DX001 (ip), vehicle: Klucel (hydroxypropylcellulose) (HPC) 102 % of control | dose: 400.0 mg/kg/injection, schedule: Q01DX001 (ip), vehicle: Klucel (hydroxypropylcellulose) (HPC) 105 % of control

COC(=O)C1=NOC(COc2ccc([N+](=O)[O-])cc2)C1 (centres undefined)
inactive: [1] 100 % of control | [2] 93 % of control | [3] 86 % of control

O=C1OC2=C(CCCCC2)C(N2CCCCC2)C12SCCCS2 (centres undefined)
inactive: dose: 66.0 mg/kg/injection, schedule: Q04DX003 (ip), vehicle: saline with Tween-80 100 % of control and 96 % of control | [4] 98 % of control and 91 % of control | dose: 150.0 mg/kg/injection, schedule: Q04DX003 (ip), vehicle: saline with Tween-80 110 % of control and 93 % of control | dose: 200.0 mg/kg/injection, schedule: Q04DX003 (ip), vehicle: saline with Tween-80 104 % of control | dose: 400.0 mg/kg/injection, schedule: Q04DX003 (ip), vehicle: saline with Tween-80 93 % of control

COc1ccc(C2c3cc4c(cc3OC3(N5CCCC5)CCCCC23)OCO4)c(OC)c1 (centres undefined)
inactive: dose: 60.0 mg/kg/injection, schedule: Q01DX005 (ip), vehicle: Klucel (hydroxypropylcellulose) (HPC) 87 % of control | dose: 120.0 mg/kg/injection, schedule: Q01DX005 (ip), vehicle: Klucel (hydroxypropylcellulose) (HPC) 90 % of control | dose: 240.0 mg/kg/injection, schedule: Q01DX005 (ip), vehicle: Klucel (hydroxypropylcellulose) (HPC) 91 % of control

Cc1ncc(C(N)=O)c(N)n1
inactive: [5] 103 % of control | [6] 104 % of control | [7] 104 % of control

C=C(C)C(O)CCCO[Si](c1ccccc1)(c1ccccc1)C(C)(C)C (centres undefined)
inactive: [1] 94 % of control | [2] 95 % of control | [3] 97 % of control

COc1cc(CC2C(Cc3ccc4c(c3)OCO4)COC2CO)cc(OC)c1OC (centres undefined)
inactive: dose: 6.25 mg/kg/injection, schedule: Q04DX002 (ip), vehicle: acetone 95 % of control | dose: 12.5 mg/kg/injection, schedule: Q04DX002 (ip), vehicle: acetone 102 % of control | dose: 25.0 mg/kg/injection, schedule: Q04DX002 (ip), vehicle: acetone 98 % of control

CC(=O)Nc1ccc(S(=O)(=O)Nc2cnccn2)cc1
inactive: dose: 100.0 mg/kg/injection, schedule: Q01DX001 (ip), vehicle: saline with Tween-80 93 % of control

Cc1cc(=O)c2cc3ccc4cccc5ccc(c2[nH]1)c3c45
inactive: [8] 98 % of control | [9] 103 % of control | [10] 100 % of control

O=C1CSC(c2cccc(Cl)c2)N1c1nncs1 (centres undefined)
inactive: [1] 109 % of control | [2] 97 % of control | [3] 98 % of control

CSc1ccc(N=C(N)N)cc1
inactive: [5] 108 % of control | [6] 110 % of control

CC(=O)C(O)CC(=O)C(O)CC(=O)C(O)N1C(=O)C=CC1=O (centres undefined)
inactive: dose: 6.25 mg/kg/injection, schedule: Q01DX009 (ip), vehicle: Klucel (hydroxypropylcellulose) (HPC) 93 % of control | dose: 12.5 mg/kg/injection, schedule: Q01DX009 (ip), vehicle: Klucel (hydroxypropylcellulose) (HPC) 95 % of control | dose: 25.0 mg/kg/injection, schedule: Q01DX009 (ip), vehicle: Klucel (hydroxypropylcellulose) (HPC) 97 % of control

C/C=C1/CC2C=Nc3cc(O)c(OC)cc3C(=O)N2C1 (centres undefined)
inactive: dose: 50.0 micrograms/kg/injection, schedule: Q01DX005 (ip), vehicle: saline + alcohol 98 % of control | dose: 100.0 micrograms/kg/injection, schedule: Q01DX005 (ip), vehicle: saline + alcohol 110 % of control | dose: 200.0 micrograms/kg/injection, schedule: Q01DX005 (ip), vehicle: saline + alcohol 116 % of control | dose: 400.0 micrograms/kg/injection, schedule: Q01DX005 (ip), vehicle: saline + alcohol 120 % of control
active: dose: 1.0 mg/kg/injection, schedule: Q01DX005 (ip), vehicle: saline + alcohol 157 % of control

Nc1nc(N)c(N=O)c(N)n1
inactive: dose: 44.0 mg/kg/injection, schedule: Q01DX009 (ip), vehicle: saline 104 % of control | dose: 66.0 mg/kg/injection, schedule: Q01DX009 (ip), vehicle: saline 104 % of control | [11] 104 % of control | dose: 150.0 mg/kg/injection, schedule: Q01DX009 (ip), vehicle: saline 102 % of control

Cc1nc(O)c(-c2ccccc2)s1
inactive: [5] 104 % of control | [6] 105 % of control | [7] 92 % of control

COc1ccc(CCNC(=O)c2ccc(CSc3ccc(Cl)cc3)o2)cc1OC
inactive: [8] 105 % of control | [9] 100 % of control | [10] 93 % of control

O=c1[nH]c2c(c3c1CCCC3)CC1(CC2)OCCO1
inactive: dose: 100.0 mg/kg/injection, schedule: Q04DX002 (ip), vehicle: Klucel (hydroxypropylcellulose) (HPC) 105 % of control | dose: 200.0 mg/kg/injection, schedule: Q04DX002 (ip), vehicle: Klucel (hydroxypropylcellulose) (HPC) 100 % of control | dose: 400.0 mg/kg/injection, schedule: Q04DX002 (ip), vehicle: Klucel (hydroxypropylcellulose) (HPC) 108 % of control

CC1(C)N=C(N)N=C(N)N1c1ccc(CCCCc2ccc(S(=O)(=O)F)cc2)c(Cl)c1
active: dose: 13.2 mg/kg/injection, schedule: Q01DX009 (ip), vehicle: saline 154 % of control | dose: 20.0 mg/kg/injection, schedule: Q01DX009 (ip), vehicle: saline 159 % of control | dose: 30.0 mg/kg/injection, schedule: Q01DX009 (ip), vehicle: saline 159 % of control | dose: 45.0 mg/kg/injection, schedule: Q01DX009 (ip), vehicle: saline 186 % of control

COc1ccc(Nc2c3sc4cc(OC)ccc4nc-3c3ccccc3c2=O)cc1
inactive: [8] 94 % of control | [9] 92 % of control | [10] 94 % of control

Cc1ccc(C(=O)OC(CCN(C)C)c2ccccc2)cc1 (centres undefined)
inactive: [12] 109 % of control | [11] 106 % of control

CCC(C(=O)O)C(=O)O.[NH-]CC[NH-].[Pt+2]
active: dose: 25.0 mg/kg/injection, schedule: Q01DX009 (ip), vehicle: saline with Tween-80 190 % of control | dose: 50.0 mg/kg/injection, schedule: Q01DX009 (ip), vehicle: Klucel (hydroxypropylcellulose) (HPC) 160 % of control | [5] 218 % of control | dose: 50.0 mg/kg/injection, schedule: Q04DX003 (ip), vehicle: saline with Tween-80 181 % of control | dose: 100.0 mg/kg/injection, schedule: Q01DX009 (ip), vehicle: Klucel (hydroxypropylcellulose) (HPC) 205 % of control | [4] 195 % of control | dose: 200.0 mg/kg/injection, schedule: Q01DX009 (ip), vehicle: Klucel (hydroxypropylcellulose) (HPC) 196 % of control | [13] 155 % of control
inactive: dose: 33.0 mg/kg/injection, schedule: Q04DX003 (ip), vehicle: saline 120 % of control

COC(=O)/C(C#N)=C(C)/C=C/c1ccc(OC)cc1
inactive: dose: 100.0 mg/kg/injection, schedule: Q04DX003 (ip), vehicle: saline 97 % of control | dose: 200.0 mg/kg/injection, schedule: Q04DX003 (ip), vehicle: saline 92 % of control | [13] 98 % of control

CN1CCC2OC2C1=NC#N (centres undefined)
inactive: dose: 12.5 mg/kg/injection, schedule: Q01DX009 (ip), vehicle: saline 102 % of control | dose: 25.0 mg/kg/injection, schedule: Q01DX009 (ip), vehicle: saline 101 % of control | [12] 105 % of control | [11] 101 % of control | [14] 97 % of control

O=C(NCc1cc(CNC(=O)c2cccc(O)c2O)cc(CNC(=O)c2cccc(O)c2O)c1)c1cccc(O)c1O
inactive: dose: 12.5 mg/kg/injection, schedule: Q01DX005 (ip), vehicle: saline with Tween-80 93 % of control | dose: 25.0 mg/kg/injection, schedule: Q01DX005 (ip), vehicle: saline with Tween-80 102 % of control | [8] 99 % of control and 107 % of control

N#C/C(=C\c1ccccc1Cl)C(N)=S
inactive: [12] 100 % of control | [11] 101 % of control | [14] 97 % of control

CCSC(=NC)Nc1ccc(Oc2ccc(Cl)cc2)cc1
inactive: dose: 12.5 mg/kg/injection, schedule: Q01DX005 (ip), vehicle: Klucel (hydroxypropylcellulose) (HPC) 101 % of control and 102 % of control | dose: 25.0 mg/kg/injection, schedule: Q01DX005 (ip), vehicle: Klucel (hydroxypropylcellulose) (HPC) 105 % of control and 106 % of control | dose: 50.0 mg/kg/injection, schedule: Q01DX005 (ip), vehicle: Klucel (hydroxypropylcellulose) (HPC) 102 % of control and 109 % of control and 123 % of control | dose: 100.0 mg/kg/injection, schedule: Q01DX005 (ip), vehicle: Klucel (hydroxypropylcellulose) (HPC) 100 % of control and 106 % of control and 107 % of control
